In one data set the test system is L1210. As to the kind of experiment: cells. To be noted: Mus musculus.
The species named for the next data set is Mus musculus. The settings on record: in vivo, im.

Description for L1210: In vitro cytotoxicity against L1210 (murine leukemia) cells.
Description for Mus musculus: Acute toxicity after intramuscular injection in mice.

`COc1c2c(cc3c1-c1ccc(SC)c(=O)cc1[C@@H](NC(C)=O)CC3)OCO2` [THIOCORNIGERINE]: the IC50 – broadly, the concentration that inhibits the measured activity by half – in the data set on L1210 stood at 10 nM.
The molecule `COc1c2c(cc3c1-c1ccc(OC)c(=O)cc1[C@@H](NC(C)=O)CC3)OCO2` showed a Toxicity in the data set filed under Mus musculus of 9.7 mg/kg.
In the data set with L1210, `COc1cc2c(c(OC)c1OC)-c1ccc(SC)c(=S)cc1[C@@H](/N=C(/C)S)CC2` yielded an IC50 of 40 nM. This counts as double-digit nanomolar.
Regarding `COc1cc2c(c(OC)c1OC)-c1ccc(SC)c(=S)cc1[C@@H](NC(C)=O)CC2`, 30 nM corresponded to half-maximal inhibition with L1210 (IC50).
